This passage reports IC50 results from US9243001B2, “Substituted benzene compounds” (Epizyme, Inc., priority 2013, dated 2016).

SMILES strings stand for the structures. pIC50: −log10 of the molar value.

In the assay the target is T1, wild-type EZH2 (PRC2 enzyme) (Homo sapiens, UniProt Q15910).
T1 construct: made in house; host or cells: Spodoptera frugiperda (sf9) cells, baculovirus
T1 sequence (Q15910 1-751 isoform Q15910-2): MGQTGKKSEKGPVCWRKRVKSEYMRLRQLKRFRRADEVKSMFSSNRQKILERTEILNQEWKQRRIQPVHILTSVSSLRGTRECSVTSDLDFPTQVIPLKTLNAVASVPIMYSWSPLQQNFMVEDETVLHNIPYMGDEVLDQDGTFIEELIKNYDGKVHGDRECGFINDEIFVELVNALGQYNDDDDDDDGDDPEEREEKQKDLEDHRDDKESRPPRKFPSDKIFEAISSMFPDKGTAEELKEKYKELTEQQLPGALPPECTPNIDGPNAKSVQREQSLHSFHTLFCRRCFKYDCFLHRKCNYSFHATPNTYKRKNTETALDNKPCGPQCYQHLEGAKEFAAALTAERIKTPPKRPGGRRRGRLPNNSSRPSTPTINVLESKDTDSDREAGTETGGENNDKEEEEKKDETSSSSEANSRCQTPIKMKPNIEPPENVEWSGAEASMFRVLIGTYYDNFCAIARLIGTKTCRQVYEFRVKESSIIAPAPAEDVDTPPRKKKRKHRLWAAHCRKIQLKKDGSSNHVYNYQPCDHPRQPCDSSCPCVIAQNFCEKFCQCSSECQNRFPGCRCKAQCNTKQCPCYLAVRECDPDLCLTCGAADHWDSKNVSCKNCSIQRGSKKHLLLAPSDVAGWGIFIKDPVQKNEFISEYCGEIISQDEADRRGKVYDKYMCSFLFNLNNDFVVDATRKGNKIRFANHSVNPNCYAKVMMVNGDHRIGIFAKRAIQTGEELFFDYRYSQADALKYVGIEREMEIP
T1 sequence (O75530 whole entry partner): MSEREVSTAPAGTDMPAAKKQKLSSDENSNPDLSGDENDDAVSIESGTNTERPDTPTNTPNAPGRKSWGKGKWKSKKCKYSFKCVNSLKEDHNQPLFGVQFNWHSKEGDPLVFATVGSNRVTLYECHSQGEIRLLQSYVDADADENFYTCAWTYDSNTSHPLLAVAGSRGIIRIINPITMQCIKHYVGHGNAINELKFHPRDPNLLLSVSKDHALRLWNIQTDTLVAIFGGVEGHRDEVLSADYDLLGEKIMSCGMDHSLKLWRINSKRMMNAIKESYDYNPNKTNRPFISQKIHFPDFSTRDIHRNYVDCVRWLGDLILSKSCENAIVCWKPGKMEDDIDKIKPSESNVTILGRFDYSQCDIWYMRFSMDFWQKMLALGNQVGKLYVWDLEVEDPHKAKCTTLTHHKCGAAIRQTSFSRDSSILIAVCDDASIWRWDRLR
T1 sequence (Q15022 whole entry partner): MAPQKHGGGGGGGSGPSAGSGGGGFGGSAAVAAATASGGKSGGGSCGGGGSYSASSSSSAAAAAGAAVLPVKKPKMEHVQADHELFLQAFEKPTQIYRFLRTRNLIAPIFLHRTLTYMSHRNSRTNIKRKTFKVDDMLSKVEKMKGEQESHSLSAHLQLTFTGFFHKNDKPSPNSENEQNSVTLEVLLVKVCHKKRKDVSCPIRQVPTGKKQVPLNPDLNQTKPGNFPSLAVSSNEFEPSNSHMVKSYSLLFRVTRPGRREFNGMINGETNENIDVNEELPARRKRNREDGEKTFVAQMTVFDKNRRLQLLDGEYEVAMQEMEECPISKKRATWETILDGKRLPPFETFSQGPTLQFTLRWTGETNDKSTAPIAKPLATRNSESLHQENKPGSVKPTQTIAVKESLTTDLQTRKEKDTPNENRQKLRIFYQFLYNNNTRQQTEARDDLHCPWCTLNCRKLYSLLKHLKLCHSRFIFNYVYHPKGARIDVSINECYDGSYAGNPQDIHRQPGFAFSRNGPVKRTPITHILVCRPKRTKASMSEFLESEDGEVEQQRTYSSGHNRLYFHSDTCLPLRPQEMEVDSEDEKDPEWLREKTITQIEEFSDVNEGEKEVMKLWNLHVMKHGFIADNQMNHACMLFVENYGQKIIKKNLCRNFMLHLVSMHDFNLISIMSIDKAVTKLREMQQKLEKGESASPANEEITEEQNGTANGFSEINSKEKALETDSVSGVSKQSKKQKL
T1 sequence (Q09028 whole entry partner): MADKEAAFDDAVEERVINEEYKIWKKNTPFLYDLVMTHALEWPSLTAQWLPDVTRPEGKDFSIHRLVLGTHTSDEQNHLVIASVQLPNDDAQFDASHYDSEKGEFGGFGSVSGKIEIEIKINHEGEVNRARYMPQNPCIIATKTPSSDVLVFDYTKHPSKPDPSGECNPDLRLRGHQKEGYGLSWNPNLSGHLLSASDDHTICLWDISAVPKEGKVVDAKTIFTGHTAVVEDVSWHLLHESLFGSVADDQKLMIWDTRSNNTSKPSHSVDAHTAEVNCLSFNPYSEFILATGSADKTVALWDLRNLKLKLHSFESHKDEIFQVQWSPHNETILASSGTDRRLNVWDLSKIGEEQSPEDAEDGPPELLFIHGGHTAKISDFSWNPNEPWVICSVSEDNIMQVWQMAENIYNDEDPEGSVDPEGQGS
The assay is described as follows: PRC2 enzyme assay on peptide substrates (wild-type EZH2). The settings on record: wild-type PRC2 enzyme 4 nM, H3K27me0 peptide substrate, 3H-SAM Flashplate; read-out: WT EZH2 IC50. The assay is classed as biochemical. An excerpt: General Materials. S-adenosylmethionine (SAM), S-adenosylhomocyteine (SAH), bicine, KCl, Tween20, dimethylsulfoxide (DMSO) and bovine skin gelatin (BSG) were purchased from Sigma-Aldrich at the highest level of purity possible. Dithiothreitol (DTT) was purchased from EMD Millipore. ^3H-SAM was purchased from American Radiolabeled Chemicals with a specific activity of 80 Ci/mmol. 384-well streptavidin Flashplates were purchased from PerkinElmer.
Substrates. Peptides representative of human histone H3 residues 21- 44 containing either an unmodified lysine 27 (H3K27me0) or dimethylated lysine 27 (H3K27me2) are synthesized with a C-terminal G(K-biotin) linker-affinity tag motif and a C-terminal amide cap by 21st Century Biochemicals. The peptides are high-performance liquid chromatography (HPLC) purified to greater than 95% purity and confirmed by liquid chromatography mass spectrometry (LC-MS). The sequences are listed below.
Recombinant PRC2 Enzymes. Human PRC2 enzymes were purified as 4-component enzyme complexes co-expressed in Spodoptera frugiperda (sf9) cells using a baculovirus expression system. The subunits expressed were wild-type EZH2 (NM_004456) or EZH2 Y641F, N, H, S or C mutants generated from the wild-type EZH2 construct, EED (NM_003797), Suz12 (NM_015355) and RbAp48 (NM_005610). The EED subunit contained an N-terminal FLAG tag that was used to purify the entire 4-component complex from sf9 cell lysates. The purity of the complexes met or exceeded 95% as determined by SDS-PAGE and Agilent Bioanalyzer analysis. Concentrations of enzyme stock concentrations (generally 0.3-1.0 mg/mL) was determined using a Bradford assay against a bovine serum albumin (BSA) standard.
General Procedure for PRC2 Enzyme Assays on Peptide Substrates. The assays were all performed in a buffer consisting of 20 mM bicine (pH=7.6), 0.5 mM DTT, 0.005% BSG and 0.002% Tween20, prepared on the day of use. Compounds in 100% DMSO (1 μL) were spotted into polypropylene 384-well V-bottom plates (Greiner) using a Platemate 2×3 outfitted with a 384-channel pipet head (Thermo). DMSO (1 μL) was added to columns 11, 12, 23, 24, rows A -H for the maximum signal control, and SAH, a known product and inhibitor of PRC2 (1 μL) was added to columns 11,12, 23, 24, rows I -P for the minimum signal control. A cocktail (40 μL) containing the wild-type PRC2 enzyme and H3K27me0 peptide or any of the Y641 mutant enzymes and H3K27me2 peptide was added by Multidrop Combi (Thermo). The compounds were allowed to incubate with PRC2 for 30 min at 25° C., then a cocktail (10 μL) containing a mixture of non-radioactive and ^3H-SAM was added to initiate the reaction (final volume=51 μL). In all cases, the final concentrations were as follows: wild-type or mutant PRC2 enzyme was 4 nM, SAH in the minimum signal control wells was 1 mM and the DMSO concentration was 1%. The assays were stopped by the addition of non-radioactive SAM (10 μL) to a final concentration of 600 μM, which dilutes the ^3H-SAM to a level where its incorporation into the peptide substrate is no longer detectable. 50 μL of the reaction in the 384-well polypropylene plate was then transferred to a 384-well Flashplate and the biotinylated peptides were allowed to bind to the streptavidin surface for at least 1 h before being washed three times with 0.1% Tween20 in a Biotek ELx405 plate washer. The plates were then read in a PerkinElmer TopCount platereader to measure the quantity of ^3H-labeled peptide bound to the Flashplate surface, measured as disintegrations per minute (dpm) or alternatively, referred to as counts per minute (cpm).
Where dpm=disintegrations per minute, cmpd=signal in assay well, and min and max are the respective minimum and maximum signal controls.
Where top and bottom are the normally allowed to float, but may be fixed at 100 or 0 respectively in a 3-parameter fit. The Hill Coefficient normally allowed to float but may also be fixed at 1 in a 3-parameter fit. […]
Broadly, the pIC50 is the negative decadic logarithm of the IC50, by convention in mol/L. As to `CCN(c1cc(Cl)cc(C(=O)NCc2nccn2Cc2ccccc2)c1C)[C@H]1CC[C@H](N(C)C)CC1` [Compound 17, N-((1-benzyl-1H-imidazol-2-yl)methyl)-5-chloro-3-(((1r,4r)-4-(dimethylamino)cyclohexyl)(ethyl)amino)-2-methylbenzamide], the negative-log IC50 (pIC50) was 5.52. As for `CCN(c1cc(Cl)cc(C(=O)NCc2cccc3cn(C)nc23)c1C)[C@H]1CC[C@H](N(C)C)CC1` [Compound 6, 5-chloro-3-(((trans)-4-(dimethylamino)cyclohexyl)(ethyl)amino)-2-methyl-N-((2-methyl-2H-indazol-7-yl)methyl)benzamide], the negative logarithm of the IC50 (pIC50) was below 5.00.

For the compound `CCN(c1cc(Cl)cc(C(=O)NCc2nccn2C(C)C)c1C)[C@H]1CC[C@H](N(C)C)CC1` [Compound 18, 5-chloro-3-(((trans)-4-(dimethylamino)cyclohexyl)(ethyl)amino)-N-((1-isopropyl-1H-imidazol-2-yl)methyl)-2-methylbenzamide], the pIC50 is below 5.00.

Consider `CCN(c1cc(Cl)cc(C(=O)NCCc2ncc[nH]2)c1C)[C@H]1CC[C@H](N(C)C)CC1` [Compound 10, N-(2-(1H-imidazol-2-yl)ethyl)-5-chloro-3-(((trans)-4-(dimethylamino)cyclohexyl)(ethyl)amino)-2-methylbenzamide], for which the pIC50 was 5.69. The value for `CCN(c1cc(Cl)cc(C(=O)NCc2cn(C)cn2)c1C)C1CCOCC1` [Compound 25, 5-chloro-3-(ethyl(tetrahydro-2H-pyran-4-yl)amino)-2-methyl-N-((1-methyl-1H-imidazol-4-yl)methyl)benzamide] was 5.11. The value for `CCN(c1cc(Cl)cc(C(=O)NCc2cccn3ccnc23)c1C)[C@H]1CC[C@H](N(C)C)CC1` [Compound 3, 5-chloro-3-(((trans)-4-(dimethylamino)cyclohexyl)(ethyl)amino)-N-(imidazo[1,2-a]pyridin-8-ylmethyl)-2-methylbenzamide] was 5.66; that for `CCN(c1cc(Cl)cc(C(=O)NCc2c(C)ccc3cn(C)nc23)c1C)[C@H]1CC[C@H](N(C)C)CC1` [Compound 5, 5-chloro-N-((2,6-dimethyl-2H-indazol-7-yl)methyl)-3-(((trans)-4-(dimethylamino)cyclohexyl)(ethyl)amino)-2-methylbenzamide] was below 5.00. With `CCN(c1cc(Cl)cc(C(=O)NCc2cn3ccsc3n2)c1C)C1CCOCC1` [Compound 26, 5-chloro-3-(ethyl(tetrahydro-2H-pyran-4-yl)amino)-N-(imidazo[2,1-b]thiazol-6-ylmethyl)-2-methylbenzamide] the figure was below 4.30.
